Results published in paper PMC9616048, “Thermal proteome profiling reveals Haemonchus orphan protein HCO_011565 as a target of the nematocidal small molecule UMW-868” (Frontiers in Pharmacology, 2022).
Like-named read-outs stand apart in the source and are kept apart here.

Columns and labels:
[1] = tested on: H. contortus fourth-stage larvae (L4s) development; experiment: Dose-response evaluation, L4 development; type: cell-based, Haemonchus contortus; details: for IC50: Haemonchus contortus, 168 h
Protocol: These evaluations were carried out to estimate the half-maximal inhibitory concentrations (IC50 values) for hit compounds against H. contortus xL3s. With reference to the two positive-control compounds (monepantel and moxidectin), IC50 values for compounds were estimated ([Preston et al., 2015]; [Taki et al., 2021a]) using two-fold serial dilution (in LB*; 9 points from 50 μM to 0.2 µM) in 96-well plates (cat. no. 3596; Corning) with larvae at a density of 300 H. contortus xL3s in 100 µl per well. Plates containing H. contortus xL3s were incubated at 38°C, 10% (v/v) CO2 and >90% relative humidity.
The motility of H. contortus xL3s and L4 development were measured following 168 h of incubation with compound ([Taki et al., 2021a]). Compound concentrations were log10-transformed and fitted using a variable slope four-parameter equation, constraining the highest value to 100% employing a least squares (ordinary) fit model using GraphPad Prism software (v.9.1.2). Compounds were tested by three independent experiments in triplicate. A one-way analysis of variance (ANOVA) with a Tukey’s multiple comparison test or an unpaired t-test was used to establish statistically significant differences in larval motility or development.

H. contortus xL3s = experiment: Cell lethality in xL3s (Sytox Green staining); type: cell-based, Haemonchus contortus
Protocol: Fluorescence staining was employed to assess the ability of UMW-868 to reduce the viability of H. contortus. The xL3s were dispensed in 96-well plates at a density of 300 xL3 per well, and incubated with compounds UMW-868 or A-3155, non-active analogs of UMW-868, at 50 μM at 38°C, 10% (v/v) CO2 and >90% relative humidity. After 90 h of incubation, H. contortus xL3s were stained with Sytox Green nucleic acid stain (Thermo Fisher Scientific) at the final concentration of 1 µM in LB* in the same 96-well plates and incubated for 1 h at 38°C and 10% (v/v) CO2 with >90% relative humidity. Following the incubation, the viability of larvae was evaluated by measuring the relative fluorescent units (RFU) of xL3s using an Omega FLUOstar microplate reader (BMG Labtech), with excitation and emission wavelengths set at 485 nm and 520 nm, respectively. The 96-well plates containing the stained larvae were returned to the incubator for further 78 h; after a total of 168 h of compound exposure, the stained larvae were examined under an inverted fluorescence microscope (DM IL, Leica) equipped with a green fluorescent protein filter (470/500/525 […]; Leica), and imaged using Leica Application Suite software (Leica).

[2] = Cellular toxicity in HepG2 cells (crystal violet); type: cell-based, human; details: human, HepG2 human hepatoma cells; HepG2, 48 h; read-out: Cytotoxicity (48 h) CC50
Protocol: (§1) The toxicities of compounds on cell and mitochondria were assessed to estimate their half-maximal cytotoxic concentrations (CC50) and half-maximal mitotoxic concentrations (MC50), respectively. HepG2 human hepatoma cells were seeded into wells of a 96-well plate at a density of 5.5 × 10^4 cells per well in 80 µl of Dulbecco’s modified eagle medium (DMEM; with GlutaMax™ cat. no. 10566016 or 4 mM L-glutamine cat. no. 11966025; Thermo Fisher Scientific), supplemented with 25 mM D-glucose (cytotoxicity) or D-galactose (mitotoxicity), 10% (v/v) inactivated foetal bovine serum (iFBS), 100 IU/ml of penicillin, 100 μg/ml of streptomycin and 0.25 μg/ml of amphotericin B (designated DMEM*). Cells were allowed to adhere for 16 h at 37°C and 5% (v/v) CO2 at > 90% relative humidity, then, incubated for 48 h with individual, serially-diluted compounds (two-fold serial dilution in DMEM*; […]) in a final volume of 100 µl. For the assessment of toxicity on mitochondria, cells were starved of serum (DMEM* without iFBS) for 4 h prior to the 48 h-incubation with compounds ([Swiss and Will, 2011]; [Kamalian et al., 2015]). Two positive control compounds, doxorubicin (cytotoxic control) and M-666 (mitotoxic control) were each added to three individual wells in each 96-well plate at a single concentration of 10 µM. DMEM* + 0.25% (v/v) DMSO was added to 12 wells in each plate as negative controls. Monepantel and moxidectin were also serially diluted — prepared in the same manner as test compounds — and used as (“non-toxic”) reference compounds. After 48 h of incubation, cell viability was determined by the crystal violet staining method ([Śliwka et al., 2016]). The absorbance (595 nm) of treated cells was normalised with reference to the negative control (100% viability). To determine the CC50 and MC50 values, compound concentrations were log10-transformed, baseline-corrected using a respective positive control (doxorubicin or M-666) and fitted using a variable slope four-parameter equation with a least squares (ordinary) fit model using GraphPad Prism software (v.9.1.2). Compounds and controls were tested in triplicate.

[3] = tested on: HepG2 human hepatoma cells; experiment: Cellular toxicity in HepG2 cells (crystal violet); type: cell-based; details: HepG2 cells, concentrations of up to 100 µM
Protocol: as §1

[4] = tested on: A. ceylanicum in hamsters; experiment: In vivo activity against A. ceylanicum in hamsters; parameters: species or system Ancylostoma ceylanicum
Protocol: Candidate compound(s) were tested for their effect on other nematode species (He. polygyrus and A. ceylanicum) in infected rodents.
For He. polygyrus, four NMRI mice (3 weeks old; female) were infected orally with 88 He. polygyrus L3s, and immunosuppressed with 0.25 mg/ml dexamethasone (Sigma-Aldrich), in the drinking water, until 2 days prior to treatment ([Mes et al., 2007]). For A. ceylanicum, four Syrian golden hamsters (3 weeks old; male) were infected orally with 300 L3s without immunosuppression ([Tritten et al., 2012]). Fourteen days or 23 days after the infection, mice and hamsters, respectively, were treated orally with UMW-868 at dosages of 100 mg/kg bw (mice and hamsters). Four each of untreated mice and hamsters served as placebo controls. Six to 7 days post-treatment with the compound, all animals were euthanised by CO2 (hamsters being initially narcotised using isoflurane), and the intestine was dissected. The live adult worms were collected and counted to calculate the worm burden reductions and worm expulsion rates. The worm burden reduction was calculated using the mean number of live worms for the treated group and establishing the differences, in a percentage, with reference to the untreated control group.

[5] = hamster, A. ceylanicum, 100 mg/kg single oral dose

With CCCc1ccc(-c2nc(-c3cccs3)no2)cc1 [UMW-868, 5-(4-propylphenyl)-3-(2-thienyl)-1,2,4-oxadiazole] the IC50 ([1]; analog series, read-out: L4 development inhibition (IC50 in µM)) was 50 µM, the IC50 ([1]; larval development inhibition, hit evaluation, read-out: IC50 (development)) was 5.8 µM and the “abnormal phenotypes in affected xL3s” value ([1]; dose-response evaluation) was “curved or evisceration”. The “percentage of treated xL3s killed” value (H. contortus xL3s; 50 μM, 90 h) was 100%, the “concentration at which cell death was detected in xL3s” value (H. contortus xL3s; 90 h of exposure) was over 5 µM and the “dead cells detected microscopically in xL3s (Sytox Green)” value (H. contortus xL3s; 168 h of exposure) was “dead cells could be seen throughout the larvae”. The IC50 (H. contortus xL3s; Haemonchus contortus, 90 h, read-out: IC50 (lethality, inducing cell death in xL3s)) was 34.8 µM, the CC50 at 48 h [2] was over 50 µM and the “cytotoxicity (in words)” value [3] was “did not display any appreciable cytotoxicity”. For the same compound, the “Mean no. of worms (SD)” value [4, 5] was 4.8 (1.0), the “Reduction in infection intensity (%)” value [4, 5] was 48% and the “acute toxicity and pathological changes in treated animals” value ([4]; hamsters, single oral dose, post-mortem examination) was “neither evidence of acute toxicity”.
